From patent publication US8299086B2, “Pyrimidine derivatives” (Actelion Pharmaceuticals Ltd., priority 2007, dated 2012)

molecular target: recombinant human S1P1 receptor (Homo sapiens, UniProt P21453); test: GTPγS assay to determine EC50 values; format: biochemical; conditions: 35S-GTPγS binding, membranes of CHO cells expressing recombinant human S1P1 receptor, pH 7.4
Description: GTPγS assay to determine EC50 values
GTPγS binding assays are performed in 96 well microtiter plates (Nunc, 442587) in a final volume of 200 μl, using membrane preparations of CHO cells expressing recombinant human S1P1 receptor. Assay conditions are 20 mM Hepes (Fluka, 54461), 100 mM NaCl (Fluka, 71378), 5 mM MgCl2 (Fluka, 63064), 0.1% BSA (Calbiochem, 126609), 1 μM GDP (Sigma, G-7127), 2.5% DMSO (Fluka, 41644), […] ^35S-GTPγS (Amersham Biosciences, SJ1320). The pH is 7.4. Test compounds are dissolved and diluted in 100% DMSO and pre-incubated at room temperature for 30 min in 150 μl of the above assay buffer, in the absence of ^35S-GTPγS. After addition of 50 μl of ^35S-GTPγS, the assay is incubated for 1 h at rt. The assay is terminated by transfer of the reaction mixture to a Multiscreen plate (Millipore, MAHFC1H60) using a cell harvester from Packard Biosciences, and the plates are washed with ice-cold 10 mM Na2HPO4/NaH2PO4 (70%/30%), dried, sealed at the bottom and, after addition of 25 μl MicroScint20 (Packard Biosciences, order#6013621), sealed on the top. Membrane-bound ^35S-GTPγS is measured with a TopCount from Packard Biosciences.
EC50 is the concentration of agonist inducing 50% of the maximal specific ^35S-GTPγS binding. Specific binding is determined by subtracting non-specific binding from maximal binding. Maximal binding is the amount of cpm bound to the Multiscreen plate in the presence of 10 μM of S1P. Non-specific binding is the amount of binding in the absence of an agonist in the assay.

recombinant human S1P1 receptor, sequence (P21453 whole entry): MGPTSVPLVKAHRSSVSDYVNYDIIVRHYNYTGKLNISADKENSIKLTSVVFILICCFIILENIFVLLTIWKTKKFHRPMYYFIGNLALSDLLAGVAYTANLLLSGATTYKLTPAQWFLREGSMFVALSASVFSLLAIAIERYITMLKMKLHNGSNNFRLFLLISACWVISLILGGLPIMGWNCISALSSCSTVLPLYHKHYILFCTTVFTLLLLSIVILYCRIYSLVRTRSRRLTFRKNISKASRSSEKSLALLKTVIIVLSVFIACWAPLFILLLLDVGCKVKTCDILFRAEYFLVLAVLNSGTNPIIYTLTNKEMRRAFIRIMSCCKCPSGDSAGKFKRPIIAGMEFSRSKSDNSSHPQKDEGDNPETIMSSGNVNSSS

`CCNc1nc(C)cc(-c2nc(-c3cc(C)c(OC[C@@H](O)CNC(=O)CO)c(CC)c3)no2)n1` [Example 1, N—((S)-3-{2-Ethyl-4-[5-(2-ethylamino-6-methyl-pyrimidin-4-yl)-[1,2,4]oxadiazol-3-yl]-6-methyl-phenoxy}-2-hydroxy-propyl)-2-hydroxy-acetamide] showed an EC50 of 1.15 nM.

tested on: circulating lymphocytes; test: Assessment of in vivo efficacy: circulating lymphocytes after oral administration; parameters: species or system Wistar rats; conditions: Rattus norvegicus, Lymphocyte, po, 6 h, read-out: Lymphocyte counts
Description: Assessment of In vivo Efficacy
The efficacy of the compounds of formula (I) is assessed by measuring the circulating lymphocytes after oral administration of 3 to 30 mg/kg of a compound of formula (I) to normotensive male Wistar rats. The animals are housed in climate-controlled conditions with a 12 h-light/dark cycle, and have free access to normal rat chow and drinking water. Blood is collected before and 3, 6 and 24 h after drug administration. Full blood is subjected to hematology using Advia Hematology system (Bayer Diagnostics, Zurich, Switzerland).
All data are presented as mean±SEM. Statistical analyses are performed by analysis of variance (ANOVA) using Statistica (StatSoft) and the Student-Newman-Keuls procedure for multiple comparisons. The null hypothesis is rejected when p<0.05.

First: COc1cc(-c2noc(-c3cc(C)nc(NC(C)C)n3)n2)cc(C)c1OC[C@@H](O)CNC(=O)CO [Example 51, 2-hydroxy-N—((S)-2-hydroxy-3-{4-[5-(2-isopropylamino-6-methyl-pyrimidin-4-yl)-[1,2,4]oxadiazol-3-yl]-2-methoxy-6-methyl-phenoxy}-propyl)-acetamide]
Second: CCc1cc(-c2noc(-c3cc(C)nc(NC(C)C)n3)n2)cc(C)c1OC[C@@H](O)CO [Example 59, (S)-3-{2-ethyl-4-[5-(2-isopropylamino-6-methyl-pyrimidin-4-yl)-[1,2,4]oxadiazol-3-yl]-6-methyl-phenoxy}-propane-1,2-diol]
The change in vivo at 10 mg/kg of the first is higher: -61 ± 2% for the first, -69 ± 2% for the second.

same assay, conditions: Rattus norvegicus, Lymphocyte; 6 h after oral administration of 10 mg/kg to normotensive male Wistar rats, compared to animals treated with vehicle only; mean±SEM; read-out: Lymphocyte counts

Compared with `CCN(CC)c1nc(C)cc(-c2nc(-c3cc(C)c(OCC(O)CNC(=O)CO)c(C)c3)no2)n1` (racemic) [Example 10, rac-N-(3-{4-[5-(2-Diethylamino-6-methyl-pyrimidin-4-yl)-[1,2,4]oxadiazol-3-yl]-2,6-dimethyl-phenoxy}-2-hydroxy-propyl)-2-hydroxy-acetamide], `CCc1cc(-c2noc(-c3cc(C)nc(N(CC)CC)n3)n2)cc(C)c1OC[C@@H](O)CNC(=O)CO` [Example 3, N—((S)-3-{4-[5-(2-Diethylamino-6-methyl-pyrimidin-4-yl)-[1,2,4]oxadiazol-3-yl]-2-ethyl-6-methyl-phenoxy}-2-hydroxy-propyl)-2-hydroxy-acetamide] is lower in change in vivo at 10 mg/kg: -50 ± 2% for the first, -70 ± 2% for the second.

Compared with `CCNc1nc(C)cc(-c2nc(-c3cc(C)c(OCC(O)CO)c(C)c3)no2)n1` (racemic) [Example 16, rac-3-{4-[5-(2-Ethylamino-6-methyl-pyrimidin-4-yl)-[1,2,4]oxadiazol-3-yl]-2,6-dimethyl-phenoxy}-propane-1,2-diol], `Cc1cc(-c2nc(-c3cc(C)c(OCC(O)CO)c(C)c3)no2)nc(NCC(C)C)n1` (racemic) [Example 20, rac-3-{4-[5-(2-Isobutylamino-6-methyl-pyrimidin-4-yl)-[1,2,4]oxadiazol-3-yl]-2,6-dimethyl-phenoxy}-propane-1,2-diol] is higher in change in vivo at 10 mg/kg: -74 ± 1% for the first, -55 ± 1% for the second.

`CCNc1nc(C)cc(-c2nc(-c3cc(C)c(OC[C@@H](O)CNC(=O)CO)c(CC)c3)no2)n1` [Example 1, N—((S)-3-{2-Ethyl-4-[5-(2-ethylamino-6-methyl-pyrimidin-4-yl)-[1,2,4]oxadiazol-3-yl]-6-methyl-phenoxy}-2-hydroxy-propyl)-2-hydroxy-acetamide] and `CCNc1nc(CC)cc(-c2nc(-c3cc(C)c(OC[C@@H](O)CNC(=O)CO)c(CC)c3)no2)n1` [Example 33, N—((S)-3-{2-ethyl-4-[5-(6-ethyl-2-ethylamino-pyrimidin-4-yl)-[1,2,4]oxadiazol-3-yl]-6-methyl-phenoxy}-2-hydroxy-propyl)-2-hydroxy-acetamide] are within error of each other in change in vivo at 10 mg/kg: -70 ± 3% for the first, -65 ± 2% for the second.

`CCc1cc(-c2noc(-c3cc(C)nc(N(C)CC(C)C)n3)n2)cc(C)c1OC[C@@H](O)CNC(=O)CO` [Example 29, N—[(S)-3-(2-ethyl-4-{5-[2-(isobutyl-methyl-amino)-6-methyl-pyrimidin-4-yl]-[1,2,4]oxadiazol-3-yl}-6-methyl-phenoxy)-2-hydroxy-propyl]-2-hydroxy-acetamide] and `CCc1cc(-c2noc(-c3cc(C)nc(OCC(C)C)n3)n2)cc(C)c1OC[C@@H](O)CNC(=O)CO` [Example 40, N—((S)-3-{2-ethyl-4-[5-(2-isobutoxy-6-methyl-pyrimidin-4-yl)-[1,2,4]oxadiazol-3-yl]-6-methyl-phenoxy}-2-hydroxy-propyl)-2-hydroxy-acetamide] are within error of each other in change in vivo at 10 mg/kg: -73 ± 2% for the first, -69 ± 2% for the second.

First: CCc1cc(-c2noc(-c3cc(C)nc(NCC4CC4)n3)n2)cc(C)c1OC[C@@H](O)CNC(=O)CO [Example 32, N—[(S)-3-(4-{5-[2-(cyclopropylmethyl-amino)-6-methyl-pyrimidin-4-yl]-[1,2,4]oxadiazol-3-yl}-2-ethyl-6-methyl-phenoxy)-2-hydroxy-propyl]-2-hydroxy-acetamide]
Second: CCc1cc(-c2nc(-c3cc(C)nc(NC(C)C)n3)no2)cc(C)c1OC[C@@H](O)CNC(=O)CO [Example 85, (S)—N-(3-{2-Ethyl-4-[3-(2-isopropylamino-6-methyl-pyrimidin-4-yl)-[1,2,4]oxadiazol-5-yl]-6-methyl-phenoxy}-2-hydroxy-propyl)-2-hydroxy-acetamide]
The change in vivo at 10 mg/kg of the first is higher: -58 ± 1% for the first, -68 ± 1% for the second.

Compared with `CCNc1nc(CC)cc(-c2nc(-c3cc(C)c(OC[C@@H](O)CO)c(CC)c3)no2)n1` [Example 65, (S)-3-{2-ethyl-4-[5-(6-ethyl-2-ethylamino-pyrimidin-4-yl)-[1,2,4]oxadiazol-3-yl]-6-methyl-phenoxy}-propane-1,2-diol], `CCc1cc(-c2noc(-c3cc(C)nc(NC(C)C)n3)n2)cc(C)c1CCC(=O)NCCO` [Example 138, 3-{2-ethyl-4-[5-(2-isopropylamino-6-methyl-pyrimidin-4-yl)-[1,2,4]oxadiazol-3-yl]-6-methyl-phenyl}-N-(2-hydroxy-ethyl)-propionamide] is lower in change in vivo at 10 mg/kg: -60 ± 4% for the first, -74 ± 1% for the second.
